Data on 29 molecules can be found in patent publication US7462613B2, “Pyridazinone derivatives as pharmaceuticals and pharmaceutical compositions containing them” (SANOFI-AVENTIS Deutschland GmbH, priority 2002, dated 2008).

Molecules are shown by their SMILES.

The assay deals with CDK2/Cyclin E kinase (Homo sapiens, UniProt P24941). Briefly: CDK2/Cyclin E Flashplate Assay: 96-Well Format. It counts as biochemical. To be noted: streptavidin-coated flashplate; biotinylated-Rb peptide substrate 10 μM; 33P-ATP/ATP 1 μM; CDK2/Cyclin E 20 nM; 30 minutes at 30° C.; 1% DMSO. On the procedure:
Functional Measurements for Determination of IC50-Values
CDK2/Cyclin E Flashplate Assay: 96-Well Format
A 96-well streptavidin-coated flashplate was used to assay potency of compounds according formula (I) against CDK2/Cyclin E kinase. To carry out the assay, biotinylated-Rb peptide substrate (Biotin-[…]-OH) was solubilized at 1 mM in kinase buffer (Hepes 50 mM, NaCl 1 mM, MgCl2 5 mM pH 7.5) as a stock solution conserved at −20° C. in aliquots of 110 μl. The day of the experiment, an aliquot of this solution was thawed and diluted to 14.3 μM in kinase buffer, containing 1 mM dithiothreitol (DTT) added in the buffer at the same time.
70 μl of this solution was added in each well of the flashplate in order to achieve a final concentration of 10 μM (100 μl reactionnal volume). Serial dilutions of inhibitors were prepared in DMSO from 10 mM stock solutions in order to achieve 1000 μM, 333.3 μM, 111.1 μM, 37.03 μM, 12.35 μM, 4.11 μM and 1.37 μM and all were rediluted in kinase buffer+DTT in order to achieve 100 μM, 33.3 μM, 11.1 μM, 3.7 μM, 1.24 μM, 0.41 μM and 0.14 μM in DMSO 10% buffer (vol/vol). 10 μl of each, of these solutions (or 10 μl of buffer+DTT for controls) were transferred to the testplate wells in order to achieve 10 μM, 3.33 μM, 1.11 μM, 0.37 μM, 0.12 μM, 0.04. μM and 0.01 μM as final concentrations, 1% DMSO (vol/vol). In each well, 10 μl of a solution of a mix of ^33PyATP/ATP were added in order to achieve 1 μM final concentration and a total of 1 μCi. The kinase reaction was initiated by addition of 10 μl of a solution at 200 nM of CDK2/Cyclin E in kinase buffer+DTT (or buffer+DTT for blanks) in order to achieve 20 nM final concentration. After addition of each reagent, the test-plate was shakened. The plates were incubated 30 minutes at 30° C. with a shaking at 650 rpm. At the end of the incubation, the plates were washed 3 times with 300 μl of PBS (without calcium and magnesium) per well. The incorporation of ^33P to the peptide was measured by scintillation counting.
For `O=C(NCc1ccc(Cl)cc1Cl)c1cc(-c2ccncc2)n[nH]c1=O` [Example 2, N-(2,4-dichlorobenzyl)-3-oxo-6-pyridin-4-yl-2,3-dihydropyridazine-4-carboxamide], the concentration for half-maximal inhibition (IC50) – broadly, the concentration at which inhibition is half-maximal – worked out at 905 nM. Next, `O=C(NCc1ccc(Cl)cc1)c1cc(-c2ccncc2)n[nH]c1=O` [Example 4, N-(4-chlorobenzyl)-3-oxo-6-pyridin-4-yl-2,3-dihydropyridazine-4-carboxamide-6]: 577 nM; `CCOC(=O)CCNC(=O)c1cc(-c2ccncc2)n[nH]c1=O` [Example 13, Ethyl 3-[(3-oxo-6-pyridin-4-yl-2,3-dihydropyridazine-4-carbonyl)amino]propionate]: 764 nM; `O=C(NCc1ccc(Cl)c(Cl)c1)c1cc(-c2ccncc2)n[nH]c1=O` [Example 16, N-(3,4-dichlorobenzyl)-3-oxo-6-pyridin-4-yl-2,3-dihydropyridazine-4-carboxamide]: 174 nM.

Molecule `O=C(NCc1ccc(O)cc1)c1cc(-c2ccncc2)n[nH]c1=O` [Example 18, N-(4-hydroxybenzyl)-3-oxo-6-pyridin-4-yl-2,3-dihydropyridazine-4-arboxamide] returned a concentration for half-maximal inhibition (IC50) of 536 nM. The molecule `O=C(NCCCCO)c1cc(-c2ccncc2)n[nH]c1=O` [Example 31, 3-Oxo-6-pyridin-4-yl-2,3-dihydro-pyridazine-4-carboxylic acid (4-hydroxy-butyl)-amide] gave an IC50 of 581 nM. As for `CNc1nccc(-c2cc(C(=O)NCc3ccc(Cl)cc3)c(=O)[nH]n2)n1` [Example 34, 6-(2-Methylamino-pyrimidin-4-yl)-3-oxo-2,3-dihydro-pyridazine-4-carboxylic acid 4-chloro-benzylamide], the figure is 30 nM; as for `O=C(NCc1ccc(Cl)cc1)c1cc(-c2cn[nH]c2)n[nH]c1=O` [Example 39, 3-Oxo-6-(1H-pyrazol-4-yl)-2,3-dihydro-pyridazine-4-carboxylic acid 4-chloro-benzylamide], 344 nM.

`O=C(NCc1ccc(Cl)cc1)c1cc(-c2ccc(O)cc2)n[nH]c1=O` [Example 40, 6-(4-Hydroxy-phenyl)-3-oxo-2,3-dihydro-pyridazine-4-carboxylicacid 4-chloro-benzylamide] gave a half-maximal inhibitory concentration (IC50) of 119 nM.

For the molecule `COc1cc(-c2cc(C(=O)NCc3ccc(Cl)cc3)c(=O)[nH]n2)ccc1O` [Example 41, 6-(4-Hydroxy-3-methoxy-phenyl)-3-oxo-2,3-dihydro-pyridazine-4-carboxylic acid 4-chloro-benzylamide], half-maximal inhibition (IC50) required 147 nM. The IC50 values of the last two molecules are within 1.5-fold of each other. As for `COc1cc(-c2cc(C(=O)NCCCc3cccnc3)c(=O)[nH]n2)ccc1O` [Example 49, 6-(4-Hydroxy-3-methoxy-phenyl)-3-oxo-2,3-dihydro-pyridazine-4-carboxylic acid (3-pyridin-3-yl-propyl)-amide], the figure is 175 nM. `O=C(NCCCc1ccccc1)c1cc(-c2ccncc2)n[nH]c1=O` [Example 66, 3-Oxo-6-pyridin-4-yl-2,3-dihydro-pyridazine-4-carboxylic acid (3-phenyl-propyl)-amide; compoundwith trifluoro-acetic acid] displayed an IC50 of 521 nM. Compared with the last molecule, the IC50 is about 3-fold higher. As for `O=C(NCc1ccc(Br)cc1)c1cc(-c2ccncc2)n[nH]c1=O` [Example 75, 3-Oxo-6-pyridin-4-yl-2,3-dihydro-pyridazine-4-carboxylic acid 4-bromo-benzylamide; compoundwith trifluoro-acetic acid], the figure is 802 nM; as for `COc1ccc(CNC(=O)c2cc(-c3ccncc3)n[nH]c2=O)cc1` [Example 83, 3-Oxo-6-pyridin-4-yl-2,3-dihydro-pyridazine-4-carboxylic acid 4-methoxy-benzylamide;compound with trifluoro-acetic acid], 552 nM; as for `O=C(NCc1ccc2c(c1)OCO2)c1cc(-c2ccncc2)n[nH]c1=O` [Example 84, 3-Oxo-6-pyridin-4-yl-2,3-dihydro-pyridazine-4-carboxylic acid(benzo[1,3]dioxol-5-ylmethyl)-amide;compound with trifluoro-acetic acid], 219 nM. Turning to `O=C(NCc1ccc(F)c(Br)c1)c1cc(-c2ccncc2)n[nH]c1=O` [Example 93, 3-Oxo-6-pyridin-4-yl-2,3-dihydro-pyridazine-4-carboxylic acid 3-bromo-4-fluoro-benzylamide;compound with trifluoro-acetic acid], the midpoint of inhibition, the IC50, lay at 349 nM. Compared with the last molecule, the IC50 is about 1.6-fold higher. Next, `CS(=O)(=O)c1ccc(CNC(=O)c2cc(-c3ccncc3)n[nH]c2=O)cc1` [Example 98, 3-Oxo-6-pyridin-4-yl-2,3-dihydro-pyridazine-4-carboxylic acid 4-methanesulfonyl-benzylamide; compoundwith trifluoro-acetic acid]: 664 nM; `O=C(NCCc1ccccc1Cl)c1cc(-c2ccncc2)n[nH]c1=O` [Example 103, 3-Oxo-6-pyridin-4-yl-2,3-dihydro-pyridazine-4-carboxylic acid [2-(2-chloro-phenyl)-ethyl]-amide; compound withtrifluoro-acetic acid]: 164 nM.

Molecule `O=C(NCc1ccc(C(F)(F)F)cc1)c1cc(-c2ccncc2)n[nH]c1=O` [Example 112, 3-Oxo-6-pyridin-4-yl-2,3-dihydro-pyridazine-4-carboxylic acid 4-trifluoromethyl-benzylamide; compoundwith trifluoro-acetic acid] displayed an IC50 of 360 nM. As for `O=C(NCc1ccc(Cl)cc1F)c1cc(-c2ccncc2)n[nH]c1=O` [Example 116, 3-Oxo-6-pyridin-4-yl-2,3-dihydro-pyridazine-4-carboxylic acid 4-chloro-2-fluoro-benzylamide;compound with trifluoro-acetic acid], the figure is 787 nM. Take `O=C(NCc1ccc(F)cc1)c1cc(-c2ccncc2)n[nH]c1=O` [Example 125, 3-Oxo-6-pyridin-4-yl-2,3-dihydro-pyridazine-4-carboxylic acid 4-fluoro-benzylamide; compoundwith trifluoro-acetic acid]: the IC50 is 519 nM. Next, `Cc1ccc(CNC(=O)c2cc(-c3ccncc3)n[nH]c2=O)s1` [Example 139, 3-Oxo-6-pyridin-4-yl-2,3-dihydro-pyridazine-4-carboxylic acid (5-methyl-thiophen-2-ylmethyl)-amide; compound withtrifluoro-acetic acid]: 353 nM; `O=C(NCc1ccc(Cl)s1)c1cc(-c2ccncc2)n[nH]c1=O` [Example 142, 3-Oxo-6-pyridin-4-yl-2,3-dihydro-pyridazine-4-carboxylic acid (5-chloro-thiophen-2-ylmethyl)-amide; compound withtrifluoro-acetic acid]: 356 nM.

Molecule `O=C(NCCCc1cccnc1)c1cc(-c2ccc(O)cc2)n[nH]c1=O` [Example 164, 6-(4-Hydroxy-phenyl)-3-oxo-2,3-dihydro-pyridazine-4-carboxylicacid (3-pyridin-3-yl-propyl)-amide] registered an IC50 of 133 nM. For the molecule `C[C@@H](Nc1nccc(-c2cc(C(=O)NCCCc3cccnc3)c(=O)[nH]n2)n1)c1ccccc1` [Example 167, R-3-Oxo-6-[2-(1-phenyl-ethylamino)-pyrimidin-4-yl]-2,3-dihydro-pyridazine-4-carboxylic acid (3-pyridin-3-yl-propyl)-amide], the midpoint of inhibition, the IC50, lay at 125 nM.

Turning to `O=C(NCc1ccc(Cl)cc1)c1cc(-c2ccnc(NCCN3CCOCC3)n2)n[nH]c1=O` [Example 175, 6-[2-(2-Morpholin-4-yl-ethylamino)-pyrimidin-4-yl]-3-oxo-2,3-dihydro-pyridazine-4-carboxylicacid 4-chloro-benzylamide; compoundwith trifluoro-acetic acid], the IC50 is 27 nM.

On to `O=C(NCc1ccc(Cl)cc1)c1cc(-c2ccc(O)c(Cl)c2)n[nH]c1=O` [Example 180, 6-(3-Chloro-4-hydroxy-phenyl)-3-oxo-2,3-dihydro-pyridazine-4-carboxylic acid 4-chloro-benzylamide], for which the IC50 was 173 nM. Next, `O=C(NCc1ccc(Cl)cc1)c1cc(-c2cc(F)c(O)c(F)c2)n[nH]c1=O` [Example 182, 6-(3,5-Difluoro-4-hydroxy-phenyl)-3-oxo-2,3-dihydro-pyridazine-4-carboxylic acid 4-chloro-benzylamide]: 464 nM; `O=C(NCc1ccc(Cl)cc1)c1cc(-c2ccc(O)c(F)c2)n[nH]c1=O` [Example 183, 6-(3-Fluoro-4-hydroxy-phenyl)-3-oxo-2,3-dihydro-pyridazine-4-carboxylic acid 4-chloro-benzylamide]: 102 nM.
